Data taken from patent US11117900B2 (Vertex Pharmaceuticals Incorporated, priority 2012, dated 2021).

tested on: HCT116 colorectal cancer cells; test: Cisplatin sensitization assay (96 h MTS cell viability); assay type: cell-based; details: Cisplatin sensitization value;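 also: compound concentration needed to lower the IC50 of Cisplatin alone by a set fold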
Method in brief: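 HCT116 cells were dosed simultaneously with compound and cisplatin as a full matrix of 2-fold serial dilutions from 10 μM top final concentration. Incubation was 96 h at 37° C., 5% CO2, followed by 1 h with MTS reagent for the viability read-out. Sensitization values were binned into +++, ++ and + categories.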

Structure (SMILES)	Cisplatin Sensitization Assay
Nc1nn2cc(F)cnc2c1C(=O)Nc1cnccc1OC1CC[S+]([O-])CC1 (stereo not drawn) [I-O-44, 2-amino-6-fluoro-N-(4-((1-oxidotetrahydro-2H-thiopyran-4-yl)oxy)pyridin-3-yl)pyrazolo[1,5-a]pyrimidine-3-carboxamide]	++ (Compounds with a Cisplatin sensitization value >0.02 μM but <0.2 μM are marked with “++.”)
Nc1nn2cc(Cl)cnc2c1C(=O)Nc1cnccc1Oc1cccnc1 [I-O-70, 2-amino-6-chloro-N-(4-(pyridin-3-yloxy)pyridin-3-yl)pyrazolo[1,5-a]pyrimidine-3-carboxamide]	+++ (Compounds with a Cisplatin sensitization value of <0.02 μM are marked with “+++.”)
CN(C)CCOc1cc(C(F)(F)F)ncc1NC(=O)c1c(N)nn2cc(Cl)cnc12 [I-O-71, 2-amino-6-chloro-N-(4-(2-(dimethylamino)ethoxy)-6-(trifluoromethyl)pyridin-3-yl)pyrazolo[1,5-a]pyrimidine-3-carboxamide]	+ (Compounds with a Cisplatin sensitization value >0.2 μM but <5 μM are marked with “+.”)
Nc1nn2cc(Cl)cnc2c1C(=O)Nc1cnccc1OC1CC2(CNC2)C1 [I-O-72, N-(4-(2-azaspiro[3.3]heptan-6-yloxy)pyridin-3-yl)-2-amino-6-chloropyrazolo[1,5-a]pyrimidine-3-carboxamide]	+ (Compounds with a Cisplatin sensitization value >0.2 μM but <5 μM are marked with “+.”)
Nc1nn2cc(Cl)cnc2c1C(=O)Nc1cnccc1OC1CNC1 [I-O-73, 2-amino-N-(4-(azetidin-3-yloxy)pyridin-3-yl)-6-chloropyrazolo[1,5-a]pyrimidine-3-carboxamide]	+ (Compounds with a Cisplatin sensitization value >0.2 μM but <5 μM are marked with “+.”)
Nc1nn2cc(Cl)cnc2c1C(=O)Nc1cnccc1OC1CCCNC1 (stereo not drawn) [I-O-75, 2-amino-6-chloro-N-(4-(piperidin-3-yloxy)pyridin-3-yl)pyrazolo[1,5-a]pyrimidine-3-carboxamide]	++ (Compounds with a Cisplatin sensitization value >0.02 μM but <0.2 μM are marked with “++.”)
Nc1nn2cc(Cl)cnc2c1C(=O)Nc1cnccc1O[C@H]1CCNC1 [I-O-76, (S)-2-amino-6-chloro-N-(4-(pyrrolidin-3-yloxy)pyridin-3-yl)pyrazolo[1,5-a]pyrimidine-3-carboxamide]	++ (Compounds with a Cisplatin sensitization value >0.02 μM but <0.2 μM are marked with “++.”)
Nc1nn2cc(Cl)cnc2c1C(=O)Nc1cnccc1O[C@H]1C[C@]2(CCN2)C1 [I-O-78, N-(4-((4s,6r)-1-azaspiro[3.3]heptan-6-yloxy)pyridin-3-yl)-2-amino-6-chloropyrazolo[1,5-a]pyrimidine-3-carboxamide]	+ (Compounds with a Cisplatin sensitization value >0.2 μM but <5 μM are marked with “+.”)
Nc1nn2cc(Cl)cnc2c1C(=O)Nc1cnccc1O[C@H]1C[C@@]2(CCN2)C1 [I-O-79]	++ (Compounds with a Cisplatin sensitization value >0.02 μM but <0.2 μM are marked with “++.”)
Nc1nn2cc(Cl)cnc2c1C(=O)Nc1cnccc1OC1CCNCC1 [I-O-80, 2-amino-6-chloro-N-(4-(piperidin-4-yloxy)pyridin-3-yl)pyrazolo[1,5-a]pyrimidine-3-carboxamide]	+++ (Compounds with a Cisplatin sensitization value of <0.02 μM are marked with “+++.”)
N#CCc1cnc2c(C(=O)Nc3cnccc3OC3CNC3)c(N)nn2c1 [I-O-82, 2-amino-N-(4-(azetidin-3-yloxy)pyridin-3-yl)-6-(cyanomethyl)pyrazolo[1,5-a]pyrimidine-3-carboxamide]	++ (Compounds with a Cisplatin sensitization value >0.02 μM but <0.2 μM are marked with “++.”)
N#CCc1cnc2c(C(=O)Nc3cnccc3OCCN)c(N)nn2c1 [I-O-83, 2-amino-N-(4-(2-aminoethoxy)pyridin-3-yl)-6-(cyanomethyl)pyrazolo[1,5-a]pyrimidine-3-carboxamide]	+++ (Compounds with a Cisplatin sensitization value of <0.02 μM are marked with “+++.”)
N#CCc1cnc2c(C(=O)Nc3cnccc3OC3CCNCC3)c(N)nn2c1 [I-O-84, 2-amino-6-(cyanomethyl)-N-(4-(piperidin-4-yloxy)pyridin-3-yl)pyrazolo[1,5-a]pyrimidine-3-carboxamide]	++ (Compounds with a Cisplatin sensitization value >0.02 μM but <0.2 μM are marked with “++.”)
Nc1nn2cc(F)cnc2c1C(=O)Nc1cnccc1O[C@H]1CCCNC1 [I-O-85, (S)-2-amino-6-fluoro-N-(4-(piperidin-3-yloxy)pyridin-3-yl)pyrazolo[1,5-a]pyrimidine-3-carboxamide]	+++ (Compounds with a Cisplatin sensitization value of <0.02 μM are marked with “+++.”)
N#CCc1cnc2c(C(=O)Nc3cnccc3O[C@@H]3CCNC3)c(N)nn2c1 [I-O-87, (R)-2-amino-6-(cyanomethyl)-N-(4-(pyrrolidin-3-yloxy)pyridin-3-yl)pyrazolo[1,5-a]pyrimidine-3-carboxamide]	++ (Compounds with a Cisplatin sensitization value >0.02 μM but <0.2 μM are marked with “++.”)
CC(C)(C)Oc1ccncc1NC(=O)c1c(N)nn2cc(F)cnc12 [I-O-88, 2-amino-N-(4-(tert-butoxy)pyridin-3-yl)-6-fluoropyrazolo[1,5-a]pyrimidine-3-carboxamide]	+++ (Compounds with a Cisplatin sensitization value of <0.02 μM are marked with “+++.”)
CN1CCC(Oc2c(F)cncc2NC(=O)c2c(N)nn3cc(F)cnc23)CC1 [I-O-89, 2-amino-6-fluoro-N-(5-fluoro-4-((1-methylpiperidin-4-yl)oxy)pyridin-3-yl)pyrazolo[1,5-a]pyrimidine-3-carboxamide]	++ (Compounds with a Cisplatin sensitization value >0.02 μM but <0.2 μM are marked with “++.”)
CNc1cc(OC)c(NC(=O)c2c(N)nn3cc(F)cnc23)cn1 [I-O-90, 2-amino-6-fluoro-N-(4-methoxy-6-(methylamino)pyridin-3-yl)pyrazolo[1,5-a]pyrimidine-3-carboxamide]	+ (Compounds with a Cisplatin sensitization value >0.2 μM but <5 μM are marked with “+.”)
Nc1nn2cc(F)cnc2c1C(=O)Nc1cncc(F)c1OC1CCN(C2COC2)CC1 [I-O-91, 2-amino-6-fluoro-N-(5-fluoro-4-((1-(oxetan-3-yl)piperidin-4-yl)oxy)pyridin-3-yl)pyrazolo[1,5-a]pyrimidine-3-carboxamide]	++ (Compounds with a Cisplatin sensitization value >0.02 μM but <0.2 μM are marked with “++.”)
Nc1nn2cc(F)cnc2c1C(=O)Nc1cnccc1OC1COC1 [I-O-92, 2-amino-6-fluoro-N-(4-(oxetan-3-yloxy)pyridin-3-yl)pyrazolo[1,5-a]pyrimidine-3-carboxamide]	+++ (Compounds with a Cisplatin sensitization value of <0.02 μM are marked with “+++.”)

molecular target: full-length ATR (Homo sapiens (Human), UniProt Q13535); test: ATR inhibition assay (radioactive-phosphate incorporation); assay type: biochemical; details: Ki(app), 5 nM full-length ATR, 10 μM ATP, 25° C.
Sequence (Q13535 whole entry): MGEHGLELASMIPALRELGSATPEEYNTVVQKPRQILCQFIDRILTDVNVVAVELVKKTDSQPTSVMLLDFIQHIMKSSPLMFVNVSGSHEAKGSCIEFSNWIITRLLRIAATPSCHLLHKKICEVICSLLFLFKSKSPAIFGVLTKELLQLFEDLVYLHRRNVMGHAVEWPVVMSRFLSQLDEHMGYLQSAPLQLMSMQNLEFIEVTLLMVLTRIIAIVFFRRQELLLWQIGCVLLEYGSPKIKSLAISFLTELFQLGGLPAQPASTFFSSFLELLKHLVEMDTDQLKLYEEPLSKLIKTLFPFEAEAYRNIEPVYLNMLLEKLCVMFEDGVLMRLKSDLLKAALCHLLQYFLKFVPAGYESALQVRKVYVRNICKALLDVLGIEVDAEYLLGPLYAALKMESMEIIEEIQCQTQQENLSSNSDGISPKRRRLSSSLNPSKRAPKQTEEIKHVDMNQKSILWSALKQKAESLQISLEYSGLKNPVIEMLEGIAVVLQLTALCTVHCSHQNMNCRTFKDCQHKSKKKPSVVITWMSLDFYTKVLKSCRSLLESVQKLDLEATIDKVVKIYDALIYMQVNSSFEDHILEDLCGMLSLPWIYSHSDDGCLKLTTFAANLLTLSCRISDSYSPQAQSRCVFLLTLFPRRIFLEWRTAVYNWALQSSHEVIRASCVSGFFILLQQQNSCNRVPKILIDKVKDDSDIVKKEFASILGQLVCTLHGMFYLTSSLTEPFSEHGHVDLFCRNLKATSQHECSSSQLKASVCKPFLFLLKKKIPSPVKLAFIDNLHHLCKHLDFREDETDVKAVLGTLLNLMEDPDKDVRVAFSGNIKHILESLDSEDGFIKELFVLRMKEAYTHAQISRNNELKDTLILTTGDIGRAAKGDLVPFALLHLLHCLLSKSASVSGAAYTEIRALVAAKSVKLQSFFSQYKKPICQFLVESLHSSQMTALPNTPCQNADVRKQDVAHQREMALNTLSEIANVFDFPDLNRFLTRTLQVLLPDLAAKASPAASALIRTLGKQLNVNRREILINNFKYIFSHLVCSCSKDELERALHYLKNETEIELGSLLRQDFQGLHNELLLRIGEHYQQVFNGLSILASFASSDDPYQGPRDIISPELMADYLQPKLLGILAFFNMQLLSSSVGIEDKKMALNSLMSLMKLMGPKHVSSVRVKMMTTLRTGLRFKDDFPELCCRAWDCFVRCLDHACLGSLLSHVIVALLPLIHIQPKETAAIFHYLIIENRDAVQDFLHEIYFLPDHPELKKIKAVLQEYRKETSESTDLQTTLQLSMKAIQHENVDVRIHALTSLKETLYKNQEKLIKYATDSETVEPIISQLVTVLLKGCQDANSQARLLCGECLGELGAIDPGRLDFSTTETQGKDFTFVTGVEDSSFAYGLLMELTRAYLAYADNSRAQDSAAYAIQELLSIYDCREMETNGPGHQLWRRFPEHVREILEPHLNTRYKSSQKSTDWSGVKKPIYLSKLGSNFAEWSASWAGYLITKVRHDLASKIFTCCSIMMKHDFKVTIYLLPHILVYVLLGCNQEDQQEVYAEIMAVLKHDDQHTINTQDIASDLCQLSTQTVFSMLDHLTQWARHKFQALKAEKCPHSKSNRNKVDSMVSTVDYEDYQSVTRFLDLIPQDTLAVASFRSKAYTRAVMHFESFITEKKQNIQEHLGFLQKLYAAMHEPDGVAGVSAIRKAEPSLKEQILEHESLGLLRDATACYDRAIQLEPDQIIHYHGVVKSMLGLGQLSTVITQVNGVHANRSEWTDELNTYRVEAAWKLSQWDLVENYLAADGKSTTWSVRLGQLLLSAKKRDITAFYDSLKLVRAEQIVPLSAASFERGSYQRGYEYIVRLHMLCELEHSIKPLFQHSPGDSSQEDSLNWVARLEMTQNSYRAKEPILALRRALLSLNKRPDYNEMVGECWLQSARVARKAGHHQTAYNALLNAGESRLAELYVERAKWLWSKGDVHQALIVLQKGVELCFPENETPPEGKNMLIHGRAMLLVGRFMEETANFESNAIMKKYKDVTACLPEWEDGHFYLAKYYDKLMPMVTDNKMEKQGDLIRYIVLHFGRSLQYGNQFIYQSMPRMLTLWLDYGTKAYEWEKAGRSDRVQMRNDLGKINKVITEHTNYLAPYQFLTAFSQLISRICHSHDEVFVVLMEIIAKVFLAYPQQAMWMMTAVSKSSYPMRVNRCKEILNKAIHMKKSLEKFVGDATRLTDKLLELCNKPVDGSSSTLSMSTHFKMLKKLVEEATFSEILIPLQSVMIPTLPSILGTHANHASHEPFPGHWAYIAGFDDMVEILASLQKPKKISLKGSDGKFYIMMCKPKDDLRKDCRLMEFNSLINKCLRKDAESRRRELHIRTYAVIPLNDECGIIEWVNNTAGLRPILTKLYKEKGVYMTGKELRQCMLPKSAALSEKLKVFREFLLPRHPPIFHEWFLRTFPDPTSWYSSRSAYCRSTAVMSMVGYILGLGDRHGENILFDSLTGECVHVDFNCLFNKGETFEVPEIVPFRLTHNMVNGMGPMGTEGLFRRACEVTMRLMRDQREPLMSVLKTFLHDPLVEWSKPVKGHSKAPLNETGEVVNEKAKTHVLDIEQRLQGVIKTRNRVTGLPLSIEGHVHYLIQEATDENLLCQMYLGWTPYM
Protocol: Compounds were screened for their ability to inhibit ATR kinase using a radioactive-phosphate incorporation assay. Assays were carried out in a mixture of 50 mM Tris/HCl (pH 7.5), 10 mM MgCl2 and 1 mM DTT. Final substrate concentrations were 10 μM [γ-33P]ATP (3 mCi 33P ATP/mmol ATP, Perkin Elmer) and 800 μM target peptide ([…]) (SEQ ID NO:1).
Assays were carried out at 25° C. in the presence of 5 nM full-length ATR. An assay stock buffer solution was prepared containing all of the reagents listed above, with the exception of ATP and the test compound of interest. 13.5 μL of the stock solution was placed in a 96 well plate followed by addition of 2 μL of DMSO stock containing serial dilutions of the test compound (typically starting from a final concentration of 15 μM with 3-fold serial dilutions) in duplicate (final DMSO concentration 7%). The plate was pre-incubated for 10 minutes at 25° C. and the reaction initiated by addition of 15 μL [γ-33P]ATP (final concentration 10 μM).
The reaction was stopped after 24 hours by the addition of […] phosphoric acid containing 2 mM ATP. […]
After removing mean background values for all of the data points, Ki(app) data were calculated from non-linear regression analysis of the initial rate data using the Prism software package (GraphPad Prism version 3.0 cx for Macintosh, GraphPad Software, San Diego Calif., USA).

Structure (SMILES)	Ki
Nc1nn2cc(F)cnc2c1C(=O)Nc1cnccc1OC1CC[S+]([O-])CC1 (stereo not drawn) [I-O-44, 2-amino-6-fluoro-N-(4-((1-oxidotetrahydro-2H-thiopyran-4-yl)oxy)pyridin-3-yl)pyrazolo[1,5-a]pyrimidine-3-carboxamide]	10 to 1000 nM
